Each structure is given as a SMILES string.

The subject of this test is KB. In words: Cytotoxicity against human KB cells after 72 hrs by neutral red based colorimetry assay. It counts as functional, cell-based.
As usually defined, the IC50 is the midpoint of a concentration-inhibition curve. Lower therefore signals greater potency in that assay. With `CN[C@H]1CC[C@@]2(C)C(=CC[C@H]3[C@@H]4CC[C@@H]5[C@H](C)OC(=O)[C@@]54CC[C@@H]32)C1` [PARAVALLARINE], inhibition was half-maximal at 12.8 µM (IC50).
The same measure for `CC(=O)N[C@@H]1CC[C@@]2(C)C(=CC[C@H]3[C@@H]4CC[C@@H]5[C@H](C)OC(=O)[C@@]54CC[C@@H]32)C1`: more than 50 µM; for `CN[C@H]1CC[C@@]2(C)C(=C[C@@H](O)[C@H]3[C@@H]4CC[C@@H]5[C@H](C)OC(=O)[C@@]54CC[C@@H]32)C1`: more than 50 µM.
For `CN[C@@H]1CC[C@@]2(C)C(=CC[C@H]3[C@@H]4CC[C@@H]5[C@H](C)OC(=O)[C@@]54CC[C@@H]32)C1` the value was 21 µM; for `C[C@@H]1OC(=O)[C@]23CC[C@H]4[C@@H](CC=C5C[C@@H](N)CC[C@@]54C)[C@@H]2CC[C@H]13`, 21.2 µM.
With `C[C@@H]1OC(=O)[C@]23CC[C@H]4[C@@H](CC=C5C[C@H](N)CC[C@@]54C)[C@@H]2CC[C@H]13` [GITINGENSINE], 21 µM corresponded to half-maximal inhibition (IC50).
For `CC(=O)N(C)[C@H]1C=C2C=C[C@H]3[C@@H]4CC[C@@H]5[C@H](C)OC(=O)[C@@]54CC[C@@H]3[C@@]2(C)CC1` [KIBALAURIFOLINE] the value was 21 µM.
For `C[C@@H]1OC(=O)[C@]23CC[C@H]4[C@@H](C(=O)C=C5C=CCC[C@@]54C)[C@@H]2CC[C@H]13` [KIBALAURIFENONE] the value was 21 µM.

These data come from ChEMBL document CHEMBL1800015, “Cytotoxic steroidal alkaloids from Kibatalia laurifolia” (J Nat Prod, 2011).
